Numbers after ± are expanded uncertainties.
Test: xn = mol fraction of the nth substance listed
Conditions: 101 kPa, Liquid; for viscosity: Capillary tube (Ostwald / Ubbelohde) method; for speed of sound: Sing-around technique in a fixed-path interferometer; for mass density: Vibrating tube method

CC1CCCC1 [methylcyclopentane] + CCCC(C)=O
Conditions | mass density, 293.15 K [kg/m3] | mass density, 298.15 K [kg/m3] | mass density, 303.15 K [kg/m3] | speed of sound, 293.15 K [m/s] | speed of sound, 298.15 K [m/s] | speed of sound, 303.15 K [m/s] | viscosity, 293.15 K [mPa·s] | viscosity, 298.15 K [mPa·s] | viscosity, 303.15 K [mPa·s]
x1 = 0.0493 | 802.59 ± 0.31 | 797.76 ± 0.31 | 792.9 ± 0.31 | 1228 ± 2 | 1207 ± 2 | 1187 ± 2 | 0.49 ± 0.011 | 0.462 ± 0.01 | 0.439 ± 0.009
x1 = 0.0981 | 798.89 ± 0.4 | 794.06 ± 0.4 | 789.19 ± 0.39 | 1224 ± 2 | 1203 ± 2 | 1182 ± 2 | 0.485 ± 0.011 | 0.459 ± 0.01 | 0.434 ± 0.009
x1 = 0.1993 | 791.61 ± 0.57 | 786.76 ± 0.57 | 781.89 ± 0.57 | 1216 ± 3 | 1194 ± 3 | 1173 ± 3 | 0.479 ± 0.011 | 0.452 ± 0.01 | 0.43 ± 0.01
x1 = 0.3038 | 784.4 ± 0.76 | 779.56 ± 0.75 | 774.7 ± 0.75 | 1207 ± 3 | 1185 ± 3 | 1164 ± 3 | 0.473 ± 0.011 | 0.449 ± 0.01 | 0.425 ± 0.01
x1 = 0.3972 | 778.23 ± 0.92 | 773.38 ± 0.91 | 768.51 ± 0.91 | 1201 ± 3 | 1179 ± 3 | 1157 ± 3 | 0.47 ± 0.011 | 0.444 ± 0.011 | 0.421 ± 0.01
x1 = 0.5007 | 771.75 ± 1.1 | 766.91 ± 1.1 | 762.04 ± 1.1 | 1196 ± 4 | 1174 ± 4 | 1152 ± 4 | 0.469 ± 0.012 | 0.444 ± 0.011 | 0.42 ± 0.011
x1 = 0.6069 | 765.58 ± 1.3 | 760.74 ± 1.3 | 755.87 ± 1.3 | 1193 ± 4 | 1171 ± 4 | 1148 ± 4 | 0.468 ± 0.012 | 0.442 ± 0.012 | 0.419 ± 0.011
x1 = 0.6989 | 760.33 ± 1.4 | 755.52 ± 1.4 | 750.68 ± 1.4 | 1191 ± 4 | 1168 ± 4 | 1146 ± 4 | 0.47 ± 0.013 | 0.444 ± 0.012 | 0.422 ± 0.012
x1 = 0.8052 | 754.83 ± 1.6 | 750.05 ± 1.6 | 745.24 ± 1.6 | 1190 ± 5 | 1168 ± 5 | 1145 ± 5 | 0.477 ± 0.014 | 0.451 ± 0.013 | 0.427 ± 0.013
x1 = 0.9039 | 750.38 ± 1.8 | 745.64 ± 1.8 | 740.86 ± 1.8 | 1193 ± 5 | 1170 ± 5 | 1147 ± 5 | 0.487 ± 0.015 | 0.458 ± 0.014 | 0.433 ± 0.013
x1 = 0.9508 | 748.6 ± 1.9 | 743.88 ± 1.9 | 739.12 ± 1.9 | 1195 ± 5 | 1172 ± 5 | 1148 ± 5 | 0.493 ± 0.016 | 0.466 ± 0.015 | 0.44 ± 0.014
x1 = 1 | 746.64 ± 2 | 741.94 ± 2 | 737.21 ± 1.9 | 1197 ± 5 | 1174 ± 5 | 1150 ± 5 | 0.504 ± 0.016 | 0.476 ± 0.016 | 0.45 ± 0.015

CC1CCCC1 [methylcyclopentane] + CC(C)=O
Conditions | mass density, 293.15 K [kg/m3] | mass density, 298.15 K [kg/m3] | mass density, 303.15 K [kg/m3] | speed of sound, 293.15 K [m/s] | speed of sound, 298.15 K [m/s] | speed of sound, 303.15 K [m/s] | viscosity, 293.15 K [mPa·s] | viscosity, 298.15 K [mPa·s] | viscosity, 303.15 K [mPa·s]
x1 = 0.05 | 785.97 ± 0.21 | 780.3 ± 0.21 | 774.59 ± 0.21 | 1177 ± 2 | 1155 ± 2 | 1132 ± 2 | 0.323 ± 0.007 | 0.308 ± 0.007 | 0.294 ± 0.006
x1 = 0.0985 | 781.33 ± 0.29 | 775.71 ± 0.29 | 770.04 ± 0.29 | 1171 ± 2 | 1148 ± 2 | 1126 ± 2 | 0.323 ± 0.007 | 0.308 ± 0.007 | 0.294 ± 0.006
x1 = 0.2004 | 773.02 ± 0.47 | 767.49 ± 0.47 | 761.9 ± 0.47 | 1162 ± 2 | 1139 ± 2 | 1116 ± 2 | 0.333 ± 0.007 | 0.317 ± 0.007 | 0.302 ± 0.007
x1 = 0.3009 | 766.13 ± 0.65 | 760.68 ± 0.65 | 755.18 ± 0.65 | 1157 ± 3 | 1134 ± 3 | 1111 ± 3 | 0.347 ± 0.008 | 0.33 ± 0.008 | 0.316 ± 0.007
x1 = 0.4024 | 760.79 ± 0.84 | 755.43 ± 0.83 | 750.02 ± 0.83 | 1156 ± 3 | 1133 ± 3 | 1110 ± 3 | 0.361 ± 0.009 | 0.344 ± 0.008 | 0.328 ± 0.008
x1 = 0.5029 | 756.32 ± 1 | 751.06 ± 1 | 745.74 ± 1 | 1157 ± 3 | 1134 ± 3 | 1111 ± 3 | 0.378 ± 0.009 | 0.359 ± 0.009 | 0.341 ± 0.009
x1 = 0.6052 | 752.71 ± 1.2 | 747.55 ± 1.2 | 742.34 ± 1.2 | 1161 ± 4 | 1137 ± 4 | 1114 ± 4 | 0.396 ± 0.01 | 0.375 ± 0.01 | 0.355 ± 0.009
x1 = 0.7112 | 749.82 ± 1.4 | 744.77 ± 1.4 | 739.67 ± 1.4 | 1166 ± 4 | 1143 ± 4 | 1120 ± 4 | 0.418 ± 0.012 | 0.395 ± 0.011 | 0.374 ± 0.01
x1 = 0.8139 | 747.82 ± 1.6 | 742.89 ± 1.6 | 737.92 ± 1.6 | 1174 ± 5 | 1151 ± 5 | 1127 ± 5 | 0.438 ± 0.013 | 0.415 ± 0.012 | 0.393 ± 0.012
x1 = 0.9084 | 746.75 ± 1.8 | 741.94 ± 1.8 | 737.09 ± 1.8 | 1184 ± 5 | 1161 ± 5 | 1137 ± 5 | 0.467 ± 0.015 | 0.442 ± 0.014 | 0.418 ± 0.013
x1 = 0.954 | 746.58 ± 1.9 | 741.83 ± 1.9 | 737.04 ± 1.9 | 1190 ± 5 | 1167 ± 5 | 1143 ± 5 | 0.482 ± 0.015 | 0.457 ± 0.015 | 0.432 ± 0.014
x1 = 1 | 746.64 ± 2 | 741.94 ± 2 | 737.21 ± 1.9 | 1197 ± 5 | 1174 ± 5 | 1150 ± 5 | 0.504 ± 0.016 | 0.476 ± 0.016 | 0.45 ± 0.015

CC1CCCC1 [methylcyclopentane] + CCC(C)=O
Conditions | mass density, 293.15 K [kg/m3] | mass density, 298.15 K [kg/m3] | mass density, 303.15 K [kg/m3] | speed of sound, 293.15 K [m/s] | speed of sound, 298.15 K [m/s] | speed of sound, 303.15 K [m/s] | viscosity, 293.15 K [mPa·s] | viscosity, 298.15 K [mPa·s] | viscosity, 303.15 K [mPa·s]
x1 = 0.048 | 800.42 ± 0.31 | 795.21 ± 0.31 | 789.96 ± 0.31 | 1208 ± 2 | 1187 ± 2 | 1165 ± 2 | 0.397 ± 0.009 | 0.378 ± 0.008 | 0.36 ± 0.008
x1 = 0.0982 | 795.99 ± 0.4 | 790.8 ± 0.4 | 785.57 ± 0.39 | 1203 ± 2 | 1181 ± 2 | 1160 ± 2 | 0.396 ± 0.009 | 0.376 ± 0.008 | 0.358 ± 0.008
x1 = 0.1942 | 787.99 ± 0.56 | 782.84 ± 0.56 | 777.64 ± 0.56 | 1195 ± 3 | 1173 ± 3 | 1151 ± 3 | 0.397 ± 0.009 | 0.377 ± 0.008 | 0.358 ± 0.008
x1 = 0.2911 | 780.72 ± 0.73 | 775.6 ± 0.73 | 770.44 ± 0.72 | 1188 ± 3 | 1166 ± 3 | 1144 ± 3 | 0.402 ± 0.009 | 0.383 ± 0.009 | 0.364 ± 0.008
x1 = 0.398 | 773.4 ± 0.92 | 768.32 ± 0.91 | 763.2 ± 0.9 | 1183 ± 3 | 1161 ± 3 | 1139 ± 3 | 0.408 ± 0.01 | 0.386 ± 0.009 | 0.367 ± 0.009
x1 = 0.5036 | 766.98 ± 1.1 | 761.95 ± 1.1 | 756.87 ± 1.1 | 1181 ± 4 | 1158 ± 4 | 1136 ± 4 | 0.416 ± 0.011 | 0.394 ± 0.01 | 0.374 ± 0.009
x1 = 0.6033 | 761.6 ± 1.3 | 756.62 ± 1.3 | 751.6 ± 1.3 | 1180 ± 4 | 1157 ± 4 | 1135 ± 4 | 0.427 ± 0.011 | 0.404 ± 0.011 | 0.383 ± 0.01
x1 = 0.6993 | 757.02 ± 1.4 | 752.08 ± 1.4 | 747.11 ± 1.4 | 1181 ± 4 | 1158 ± 4 | 1135 ± 4 | 0.439 ± 0.012 | 0.415 ± 0.012 | 0.394 ± 0.011
x1 = 0.8045 | 752.53 ± 1.6 | 747.68 ± 1.6 | 742.78 ± 1.6 | 1184 ± 5 | 1161 ± 5 | 1138 ± 5 | 0.455 ± 0.013 | 0.431 ± 0.013 | 0.409 ± 0.012
x1 = 0.906 | 749.02 ± 1.8 | 744.24 ± 1.8 | 739.42 ± 1.8 | 1189 ± 5 | 1166 ± 5 | 1143 ± 5 | 0.475 ± 0.015 | 0.448 ± 0.014 | 0.425 ± 0.013
x1 = 0.9517 | 747.8 ± 1.9 | 743.03 ± 1.9 | 738.24 ± 1.9 | 1193 ± 5 | 1169 ± 5 | 1146 ± 5 | 0.487 ± 0.016 | 0.46 ± 0.015 | 0.436 ± 0.014
x1 = 1 | 746.64 ± 2 | 741.94 ± 2 | 737.21 ± 1.9 | 1197 ± 5 | 1174 ± 5 | 1150 ± 5 | 0.504 ± 0.016 | 0.476 ± 0.016 | 0.45 ± 0.015

From the NIST ThermoML archive (doi:10.1016/j.jct.2005.08.002)
